Experimental data reported in patent US20240343666A1, “PERINAPHTHENONE COMPOUND AND USE THEREOF” (INSTITUTE OF MEDICINAL BIOTECHNOLOGY, CHINESE ACADEMY OF …, priority 2021, published 2024).
Read-outs that look alike come from different tables or passages of the source.

Assays:
[1] = target: influenza virus PA protein (UniProt P15659); assay type: cell-based; details: read-out: PA remaining EC50
[2] = test system: influenza A virus (IAV) A/WSN/33 (H1N1); test: microbe, parasite or virus in culture; assay type: cell-based; details: read-out: Anti-influenza activity EC50
[3] = Cell viability assay (CCK-8); assay type: cell-based; details: human; 293T-Gluc cells, CCK-8, 48 h
Source text: CCK-8 (Cell Counting Kit-8) kit is a rapid and highly sensitive detection kit based on WST-8 (water-soluble tetrazolium salt, chemical name: 2-(2-methyloxy-4-nitrophenyl)-3-(4-nitrophenyl)-5-(2,4-disulfophenyl)-2H-tetrazole monosodium salt) and widely applied to cell proliferation and cytotoxicity. WST-8 is a compound similar to MTT, and can be reduced by some dehydrogenases in mitochondria to produce orange-yellow formazan in the presence of an electron coupling reagent. The more and faster the cell proliferation, the darker the color; and the greater the cytotoxicity, the lighter the color. For the same cells, there is a linear relationship between the depth of color and the number of cells. The number of living cells can be indirectly reflected by measuring the light absorption value via an enzyme-linked immunosorbent assay instrument at a wavelength of 450 nm. 293T-Gluc cells were inoculated in a 96-well plate at 2.5×10^4 cells per well, and incubated in 100 μL of DMEM culture medium containing 10% FBS. 24 h after cell plating, 1 μL of the gradiently diluted test compound was added per well (the test compound was dissolved in DMSO and diluted with DMSO). Meanwhile, a blank control (only 100 μL of DMEM culture medium was added), a positive control (1 μL Ribavirin was added), and a negative control (1 μL DMSO was added) were set, and incubated at 37° C. for 48 h. The 96-well plate was taken out, and 10 μL of CCK-8 was added to each well. […] The experiment was repeated three times.

TRIM25 = TRIM25 (Homo sapiens, UniProt Q14258); test: Biolayer interferometry (BLI) binding to TRIM25; details: in vitro
TRIM25, sequence (Q14258 whole entry, species assumed): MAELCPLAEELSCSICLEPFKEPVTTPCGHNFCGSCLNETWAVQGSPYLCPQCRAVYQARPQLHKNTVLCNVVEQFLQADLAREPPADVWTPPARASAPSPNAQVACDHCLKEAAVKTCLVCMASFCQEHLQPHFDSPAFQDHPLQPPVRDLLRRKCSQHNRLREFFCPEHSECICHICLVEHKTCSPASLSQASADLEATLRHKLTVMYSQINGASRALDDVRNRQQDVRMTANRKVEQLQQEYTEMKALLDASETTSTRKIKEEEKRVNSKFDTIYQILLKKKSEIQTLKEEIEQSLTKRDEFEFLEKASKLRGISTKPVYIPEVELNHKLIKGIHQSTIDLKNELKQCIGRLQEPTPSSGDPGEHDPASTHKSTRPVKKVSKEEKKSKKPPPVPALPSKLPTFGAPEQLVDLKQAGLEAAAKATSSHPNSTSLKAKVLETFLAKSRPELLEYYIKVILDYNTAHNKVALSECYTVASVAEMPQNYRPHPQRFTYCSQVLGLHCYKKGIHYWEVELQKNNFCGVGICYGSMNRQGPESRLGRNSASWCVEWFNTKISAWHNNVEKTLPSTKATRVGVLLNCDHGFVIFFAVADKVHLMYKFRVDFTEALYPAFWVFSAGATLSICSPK
Source text: (§1) To further investigate the mechanism of degradation of PA protein by compound C1, the inventors tested the binding ability of the compound to TRIM25 protein and PA protein using biolayer interferometry (BLI). […] Meanwhile, the compounds also have the ability of binding PA in vitro.

PA protein [4] = target: T1, PA protein (Influenza A virus, UniProt P15659); test: Biolayer interferometry (BLI) binding to PA; details: in vitro
Source text: as §1

PA protein [5] = target: T1, PA protein; assay type: cell-based
PA protein [6] = target: T1, PA protein; test: Ubiquitination of PA protein in HEK293T cells (immunoprecipitation, Western Blotting); assay type: cell-based
TRIM25 with PA protein = TRIM25 with PA protein (UniProt P15659+Q14258); test: Interaction of TRIM25 with PA in HEK293T cells (co-immunoprecipitation); assay type: cell-based
PA protein [7] = target: T1, PA protein; test: In vitro ubiquitination test; assay type: biochemical

Structure (SMILES) | DC50 [1] | EC50 [2] | CC50 at 48 h [3] | Kd (TRIM25) | EC50 ([2]; Influenza A virus, 24 h) | Kd (PA protein [4]) | Expression level of PA protein after treatment with proteasome inhibitor MG-132 (PA protein [5]) | Restoration of PA protein after treatment with lysosome inhibitor ConA (PA protein [5]) | Polyubiquitination level of PA protein in cells (PA protein [6]) | Interaction of TRIM25 with PA protein (TRIM25 with PA protein) | Polyubiquitination level of PA protein in vitro (PA protein [7])
C/C(=C\C[C@]1(O)C(=O)c2c(O)cc(C)c3c(O)c(C)c(O)c(c23)C1=O)CC/C=C(\C)CCC(O)[C@@]1(C)CC[C@H](C(C)(C)O)O1 (relative stereo) [Compound C10] | 880 ± 80 nM | 1220 ± 10 nM | > 100 µM | 12 to 43 µM | – | – | – | – | – | – | –
C/C(=C\CC/C(C)=C/C[C@]1(O)C(=O)c2c(O)cc(C)c3c(O)c(C)c(O)c(c23)C1=O)CC/C=C1/CCC(C(C)(C)O)OC1 (some centres unmarked) [Compound C13] | 710 ± 20 nM | 650 ± 10 nM | > 100 µM | 12 to 43 µM | 450 to 2220 nM | – | – | – | – | – | –
CC(C)=CCC/C(C=O)=C\CC/C(C)=C/CC/C(C)=C/C[C@]1(O)C(=O)c2c(O)cc(C)c3c(O)c(C)c(O)c(c23)C1=O [Compound C3] | 1140 ± 260 nM | 1420 ± 20 nM | > 100 µM | 12 to 43 µM | – | – | – | – | – | – | –
C/C(=C\CC/C(C)=C/C[C@]1(O)C(=O)c2c(O)cc(C)c3c(O)c(C)c(O)c(c23)C1=O)C/C=C/C1(C)CCC(C(C)(C)O)O1 (some centres unmarked) [Compound C14] | 1020 ± 30 nM | 1060 ± 90 nM | > 100 µM | 12 to 43 µM | – | – | – | – | – | – | –
NC(=O)c1ncn([C@@H]2O[C@H](CO)[C@@H](O)[C@H]2O)n1 [Ribavirin, reference compound] | – | – | > 100 µM | – | 27800 ± 650 nM | – | – | – | – | – | –
CC(C)=CC1C/C(=C/CC/C(C)=C/CC/C(C)=C/C[C@]2(O)C(=O)c3c(O)cc(C)c4c(O)c(C)c(O)c(c34)C2=O)CO1 (some centres unmarked) [Compound C4] | 1150 ± 170 nM | 1250 ± 10 nM | > 100 µM | 12 to 43 µM | – | – | – | – | – | – | –
CC(C)=CCC/C(=C/CC/C(C)=C/CC/C(C)=C/C[C@]1(O)C(=O)c2c(O)cc(C)c3c(O)c(C)c(O)c(c23)C1=O)CO [Compound C2] | 650 ± 120 nM | 580 ± 60 nM | > 100 µM | 12 to 43 µM | 450 to 2220 nM | 58 µM | – | – | – | – | –
C/C(=C\CC/C(C)=C/C[C@]1(O)C(=O)c2c(O)cc(C)c3c(O)c(C)c(O)c(c23)C1=O)CC/C=C(\CO)CC[C@@H](O)C(C)(C)O [Compound C1] | 440 ± 90 nM | 450 ± 40 nM | > 100 µM | 12 to 43 µM | 450 to 2220 nM | 11 µM | almost completely restored | hardly affected | can promote the polyubiquitination level of PA protein | can promote the interaction of TRIM25 with PA protein | can promote the polyubiquitination level of PA protein in vitro
C/C(=C\CC/C(C)=C/C[C@]1(O)C(=O)c2c(O)cc(C)c3c(O)c(C)c(O)c(c23)C1=O)CC/C=C(\CCC1OC(C)(C)OC1(C)C)C(=O)O (some centres unmarked) [Compound C8] | 800 ± 120 nM | 550 ± 30 nM | > 100 µM | 12 to 43 µM | 450 to 2220 nM | – | – | – | – | – | –
CC(C)=CCC/C(=C/CC/C(C)=C/CC/C(C)=C/C[C@]1(O)C(=O)c2c(O)cc(C)c3c(O)c(C)c(O)c(c23)C1=O)C(=O)O [Compound C12] | 1070 ± 100 nM | 920 ± 20 nM | > 100 µM | 12 to 43 µM | – | – | – | – | – | – | –
C/C(=C\CC/C(C)=C/C[C@]1(O)C(=O)c2c(O)cc(C)c3c(O)c(C)c(O)c(c23)C1=O)CC/C=C(\CO)CCC1OC(C)(C)OC1(C)C (some centres unmarked) [Compound C7] | 1050 ± 190 nM | 780 ± 20 nM | > 100 µM | 12 to 43 µM | 450 to 2220 nM | – | – | – | – | – | –
C/C(=C\CC/C(C)=C/C[C@]1(O)C(=O)c2c(O)cc(C)c3c(O)c(C)c(O)c(c23)C1=O)CC/C=C(\C)CC[C@@H](O)C(C)(C)O [Compound C6] | 2090 ± 520 nM | 2220 ± 40 nM | > 100 µM | 12 to 43 µM | – | – | – | – | – | – | –
CC(=O)OC(C=C(C)C)C/C(C)=C/CC/C(C)=C/CC/C(C)=C/C[C@]1(O)C(=O)c2c(O)cc(C)c3c(O)c(C)c(O)c(c23)C1=O (some centres unmarked) [Compound C5] | 730 ± 230 nM | 570 ± 80 nM | > 100 µM | 12 to 43 µM | 450 to 2220 nM | – | – | – | – | – | –
C/C(=C\CC/C(C)=C/C[C@]1(O)C(=O)c2c(O)cc(C)c3c(O)cc(O)c(c23)C1=O)CC/C=C(\CO)CC[C@@H](O)C(C)(C)O [Compound C11] | 620 ± 150 nM | 910 ± 80 nM | > 100 µM | 12 to 43 µM | – | – | – | – | – | – | –
C/C(=C\C[C@]1(O)C(=O)c2c(O)cc(C)c3c(O)c(C)c(O)c(c23)C1=O)CC/C=C(\C)CCC(O)[C@@]1(C)CC[C@@H](C(C)(C)O)O1 (some centres unmarked) [Compound C9] | 1040 ± 80 nM | 1020 ± 50 nM | > 100 µM | 12 to 43 µM | – | – | – | – | – | – | –
